{"source": "patent US6864046B1", "about": "“Method for collecting and preserving semen” (Texas Tech University, priority 2000, dated 2005)", "system": "spermatozoa", "details": "calcium compound substituted for calcium chloride in Ringer's lactate; culturing 1-24 hr"}
{"molecule": "O=C([O-])[O-].[Ca+2]", "note": "[calcium carbonate]", "values": [{"measurement": "semen function (percent motility, FIGS. 5a and 5b)", "result": "maintained best"}]}
{"molecule": "calcium gluconate", "values": [{"measurement": "semen function (percent motility, FIGS. 5a and 5b)", "result": "maintained best"}]}
{"molecule": "calcium phosphate", "values": [{"measurement": "semen function (percent motility, FIGS. 5a and 5b)", "result": "maintained best"}]}
